Activity calls are given as the source filed them. The rule behind the calls is not given here.

What is called MIC is the least concentration at which growth counts as inhibited. The IC50 is the midpoint of a concentration-inhibition curve.

Data set [1] relates to Staphylococcus aureus. Briefly: Antibacterial activity against vancomycin-intermediate resistant Staphylococcus aureus Mu50 assessed as enhancement factor at 50 uM in presence of vancomycin (reference value: 4 ug/ml). It is filed as functional.
In data set [2] the test system is Staphylococcus aureus. Briefly: Antibacterial activity against vancomycin-intermediate resistant Staphylococcus aureus Mu50 assessed as enhancement factor at 50 uM in presence of oxacillin (reference value: 256 ug/ml). The class given is functional.
In data set [3] the test system is Staphylococcus aureus. Briefly: Antibacterial activity against vancomycin-intermediate resistant Staphylococcus aureus Mu50 assessed as fold reduction at 50 uM in presence of vancomycin. The class given is functional.
Data set [4] relates to Staphylococcus aureus. Briefly: Antibacterial activity against methicillin-resistant Staphylococcus aureus USA 300 assessed as enhancement factor at 50 uM in presence of vancomycin (reference value: 2 ug/ml). It is filed as functional.
The test system of data set [5] is Staphylococcus aureus. Briefly: Suppression of vancomycin-induced pbp2 gene transcription in vancomycin-intermediate resistant Staphylococcus aureus Mu50 assessed as decrease in pbp2 transcript level by RT-qPCR analysis. It is filed as functional, organism-based. Background: In qPCR the cycle at which signal appears reflects the starting amount.
The subject of data set [6] is Staphylococcus aureus. Briefly: Synergistic antibacterial activity against vancomycin-intermediate resistant Staphylococcus aureus Mu50 assessed as microbial growth at 50 uM in presence of oxacillin at 2 to 4 ug/ml by checkerboard assay. The class given is functional, organism-based.
Data set [7] has as its system Staphylococcus aureus. Briefly: Antibacterial activity against methicillin-resistant Staphylococcus aureus BAA-2094 assessed as enhancement factor at 50 uM in presence of vancomycin (reference value: 2 ug/ml). It is filed as functional.
Data set [8] has as its system Staphylococcus aureus. Briefly: Antibacterial activity against vancomycin-intermediate resistant Staphylococcus aureus Mu50 assessed as enhancement factor at 50 uM in presence of penicillin G (reference value: 16 ug/ml). The class given is functional.
Data set [9] has as its system Staphylococcus aureus. Briefly: Antibacterial activity against methicillin-resistant Staphylococcus aureus ATCC 33592 assessed as fold reduction at 50 uM in presence of oxacillin (reference value: 128 ug/ml). It is filed as functional.
Data set [10] deals with Staphylococcus aureus. Briefly: Antibacterial activity against methicillin-resistant Staphylococcus aureus USA 300 assessed as enhancement factor at 50 uM in presence of Chloramphenicol (reference value: 2 ug/ml). The class given is functional.
Data set [11] has as its system Staphylococcus aureus. Briefly: Antibacterial activity against methicillin-resistant Staphylococcus aureus USA 300 assessed as fold reduction at 50 uM in presence of vancomycin. It is filed as functional.
Data set [12] concerns Staphylococcus aureus. Briefly: Suppression of vancomycin-induced mecA gene transcription in vancomycin-intermediate resistant Staphylococcus aureus Mu50 assessed as decrease in mecA transcript level by RT-qPCR analysis. The class given is functional, organism-based.
Data set [13] concerns Staphylococcus aureus. Briefly: Antibacterial activity against methicillin-resistant Staphylococcus aureus BAA-1683 assessed as enhancement factor at 50 uM in presence of vancomycin (reference value: 2 ug/ml). The class given is functional.
The subject of data set [14] is Staphylococcus aureus. Briefly: Synergistic antibacterial activity against vancomycin-intermediate resistant Staphylococcus aureus Mu50 assessed as microbial growth at 50 uM in presence of vancomycin at 0.125 ug/ml by checkerboard assay. The class given is functional, organism-based.
The test system of data set [15] is Staphylococcus aureus. Briefly: Suppression of vancomycin-induced vraSR gene transcription in vancomycin-intermediate resistant Staphylococcus aureus Mu50 assessed as decrease in vraSR transcript level by RT-qPCR analysis. The class given is functional, organism-based.
Data set [16] has as its system Staphylococcus aureus. Briefly: Antibacterial activity against methicillin-resistant Staphylococcus aureus USA 300 assessed as fold reduction at 50 uM in presence of Chloramphenicol. The class given is functional.
Data set [17] concerns Staphylococcus aureus. Briefly: Antibacterial activity against methicillin-resistant Staphylococcus aureus BAA-1683 assessed as enhancement factor at 50 uM in presence of oxacillin (reference value: 32 ug/ml). The class given is functional.
For data set [18], the system named is Staphylococcus aureus. Briefly: Synergistic antibacterial activity against vancomycin-intermediate resistant Staphylococcus aureus Mu50 assessed as fractional inhibitory concentration index at >400 times MIC in presence of penicillin G by checkerboard assay. The class given is functional.
For data set [19], the system named is Staphylococcus aureus. Briefly: Antibacterial activity against methicillin-resistant Staphylococcus aureus USA 300 assessed as enhancement factor at 50 uM in presence of penicillin G (reference value: 128 ug/ml). The class given is functional.
Data set [20] relates to Staphylococcus aureus. Briefly: Antibacterial activity against vancomycin-intermediate resistant Staphylococcus aureus Mu50 assessed as fold reduction at 50 uM in presence of penicillin G. The class given is functional.
The nature of data set [21]: Cytotoxicity against MDCK cells assessed as reduction in cell viability incubated for 24 hrs by MTT assay. Conditions: dog. It is filed as toxicity, cell-based, Canis lupus familiaris. In general terms: Formazan colour is commonly taken as a measure of viable cells.
Data set [22] concerns Staphylococcus aureus. Briefly: Antibacterial activity against methicillin-resistant Staphylococcus aureus BAA 41 assessed as enhancement factor at 50 uM in presence of vancomycin (reference value: 2 ug/ml). The class given is functional.
For data set [23], the system named is Staphylococcus aureus. Briefly: Antibacterial activity against methicillin-resistant Staphylococcus aureus BAA 42 assessed as enhancement factor at 50 uM in presence of vancomycin (reference value: 1 ug/ml). It is filed as functional.
The subject of data set [24] is Staphylococcus aureus. Briefly: Antibacterial activity against vancomycin-intermediate resistant Staphylococcus aureus Mu50 assessed as fold reduction at 50 uM in presence of oxacillin. It is filed as functional.
The test system of data set [25] is Staphylococcus aureus. Briefly: Synergistic antibacterial activity against vancomycin-intermediate resistant Staphylococcus aureus Mu50 assessed as fractional inhibitory concentration index at […] in presence of vancomycin by checkerboard assay. The class given is functional.
For data set [26], the system named is Staphylococcus aureus. Briefly: Suppression of oxacillin-induced pbp2 gene transcription in vancomycin-intermediate resistant Staphylococcus aureus Mu50 assessed as decrease in pbp2 transcript level by RT-qPCR analysis. The class given is functional, organism-based.
The test system of data set [27] is Staphylococcus aureus. Briefly: Antibacterial activity against methicillin-resistant Staphylococcus aureus ATCC 33592 assessed as enhancement factor at 50 uM in presence of vancomycin (reference value: 2 ug/ml). The class given is functional.
Data set [28] relates to Staphylococcus aureus. Briefly: Synergistic antibacterial activity against vancomycin-intermediate resistant Staphylococcus aureus Mu50 assessed as fractional inhibitory concentration index at >400 times MIC in presence of oxacillin by checkerboard assay. It is filed as functional.
Data set [29] deals with Staphylococcus aureus. Briefly: Antibacterial activity against methicillin-resistant Staphylococcus aureus BAA 41 assessed as enhancement factor at 50 uM in presence of oxacillin (reference value: 256 ug/ml). The class given is functional.
The test system of data set [30] is Staphylococcus aureus. Briefly: Synergistic antibacterial activity against vancomycin-intermediate resistant Staphylococcus aureus Mu50 assessed as microbial growth at 50 uM in presence of penicillin G at 4 ug/ml by checkerboard assay. The class given is functional, organism-based.
Data set [31] relates to Staphylococcus aureus. Briefly: Antibacterial activity against methicillin-resistant Staphylococcus aureus ATCC 33592 assessed as fold reduction at 50 uM in presence of vancomycin. The class given is functional.
The test system of data set [32] is Staphylococcus aureus. Briefly: Antibacterial activity against methicillin-resistant Staphylococcus aureus USA 300(BAA-1556) assessed as fold reduction in presence of vancomycin. The class given is functional.
Data set [33] relates to Staphylococcus aureus. Briefly: Antibacterial activity against methicillin-resistant Staphylococcus aureus BAA-2094 assessed as enhancement factor at 50 uM in presence of oxacillin (reference value: 8 to 16 ug/ml). The class given is functional.
For data set [34], the system named is Staphylococcus aureus. Briefly: Antibacterial activity against methicillin-resistant Staphylococcus aureus USA 300 assessed as enhancement factor at 50 uM in presence of oxacillin (reference value: 16 ug/ml). The class given is functional.
Data set [35] deals with Staphylococcus aureus. Briefly: Antibacterial activity against methicillin-resistant Staphylococcus aureus BAA 42 assessed as enhancement factor at 50 uM in presence of oxacillin (reference value: 64 ug/ml). The class given is functional.
The test system of data set [36] is Staphylococcus aureus. Briefly: Suppression of oxacillin-induced vraSR gene transcription in vancomycin-intermediate resistant Staphylococcus aureus Mu50 assessed as decrease in vraSR transcript level by RT-qPCR analysis. It is filed as functional, organism-based.
In data set [37] the target is T1, Sensor protein VraS (Staphylococcus aureus (strain N315)) (UniProt Q99SZ7).
T1 sequence (whole entry): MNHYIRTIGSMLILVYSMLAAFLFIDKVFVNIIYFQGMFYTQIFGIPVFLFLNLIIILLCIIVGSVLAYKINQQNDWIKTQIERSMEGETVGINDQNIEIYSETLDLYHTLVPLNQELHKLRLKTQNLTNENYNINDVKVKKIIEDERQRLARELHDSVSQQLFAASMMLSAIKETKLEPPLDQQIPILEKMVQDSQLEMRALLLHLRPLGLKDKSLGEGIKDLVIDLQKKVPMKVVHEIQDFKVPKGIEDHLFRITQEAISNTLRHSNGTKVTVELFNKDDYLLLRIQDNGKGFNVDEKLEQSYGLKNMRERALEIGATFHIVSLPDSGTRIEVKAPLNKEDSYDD
Briefly: Inhibition of GST tagged VraS ATPase activity in vancomycin-intermediate resistant Staphylococcus aureus assessed as residual activity at 0.1 to 300 uM by kinase-coupled assay relative to control. Conditions: dose 0.1-300 µM.

Another data set addresses T2, Sensor protein VraS (Staphylococcus aureus (strain N315), UniProt Q99SZ7).
T2 sequence (Q99SZ7 whole entry): T1 sequence (whole entry)
Briefly: Inhibition of GST tagged VraS ATPase activity in vancomycin-intermediate resistant Staphylococcus aureus by kinase-coupled assay.

Data set [38] has as its system Staphylococcus aureus. Briefly: Antibacterial activity against vancomycin-intermediate resistant Staphylococcus aureus Mu50 assessed as enhancement factor at 50 uM in presence of Chloramphenicol (reference value: 16 ug/ml). The class given is functional.
Data set [39] deals with Staphylococcus aureus. Briefly: Antibacterial activity against methicillin-resistant Staphylococcus aureus ATCC 33592 assessed as enhancement factor at 50 uM in presence of oxacillin (reference value: 128 ug/ml). The class given is functional.
The subject of data set [40] is Staphylococcus aureus. Briefly: Suppression of oxacillin-induced mecA gene transcription in vancomycin-intermediate resistant Staphylococcus aureus Mu50 assessed as decrease in mecA transcript level by RT-qPCR analysis. The class given is functional, organism-based.

`Cc1ccnc(C(NC(=O)Nc2ccc3nnn(C)c3c2)C2CC2)c1` (stereo not given): the MIC in the data set on Staphylococcus aureus [1] was 4 µg/mL; with Staphylococcus aureus [2], 256 µg/mL.
Consider `CCSc1nc2ccc(NC(=O)NC(c3cc(C)ccn3)C3CC3)cc2o1` (stereo not given), for which the “fold change (FC)” value in the data set on Staphylococcus aureus [3] is given as 16; in the data set with Staphylococcus aureus [9], 16; with Staphylococcus aureus [11], 2; in the data set with Staphylococcus aureus [16], 4; with Staphylococcus aureus [20] it was 4; with Staphylococcus aureus [24], 32. Further, the “fold change (FC)” value is given as ~4 in the data set on Staphylococcus aureus [31] and 4 in the data set with Staphylococcus aureus [32]. Moreover, the MIC with Staphylococcus aureus [4] was found to be 0.5 µg/mL; in the data set on Staphylococcus aureus [7], 0.5 µg/mL; in the data set with Staphylococcus aureus [8], 4 µg/mL; in the data set on Staphylococcus aureus [1], 0.25 µg/mL; in the data set on Staphylococcus aureus [2], 8 µg/mL; in the data set on Staphylococcus aureus [10], 0.25 µg/mL. Also, the MIC was 0.5 µg/mL in the data set with Staphylococcus aureus [13]; < 2 µg/mL in the data set with Staphylococcus aureus [17]; 128 µg/mL with Staphylococcus aureus [19]; 0.25 µg/mL in the data set with Staphylococcus aureus [22]; < 0.25 µg/mL in the data set on Staphylococcus aureus [23]; < 0.25 µg/mL with Staphylococcus aureus [27]. The MIC was < 2 µg/mL with Staphylococcus aureus [29]; < 2 µg/mL in the data set on Staphylococcus aureus [33]; 16 µg/mL with Staphylococcus aureus [34]; < 2 µg/mL in the data set on Staphylococcus aureus [35]; 16 µg/mL in the data set with Staphylococcus aureus [38]; < 2 µg/mL in the data set on Staphylococcus aureus [39]. The outcome in the data set with Staphylococcus aureus [5], in the data set with Staphylococcus aureus [6], with Staphylococcus aureus [12], with Staphylococcus aureus [14], with Staphylococcus aureus [15] and in the data set on Staphylococcus aureus [26] was Active. The outcome in the data set with Staphylococcus aureus [30], in the data set with Staphylococcus aureus [36] and in the data set on Staphylococcus aureus [40] was Active. Also, the “fractional inhibitory concentration index (FICI)” value with Staphylococcus aureus [18] was “<=0.31”; with Staphylococcus aureus [25], <0.12; in the data set with Staphylococcus aureus [28], “<=0.31”. In [21], the IC50 at 24 h was > 100000 nM. For the same compound, the Activity in data set [37] was 35%. The compound further showed an IC50 against Sensor protein VraS of 940 nM.
`Cc1ccnc(C(NC(=O)Nc2ccc3c(c2)OCC(=O)N3C)C2CC2)c1` (stereo not given): the MIC in the data set on Staphylococcus aureus [1] came out at 4 µg/mL; in the data set with Staphylococcus aureus [2], 256 µg/mL.

Values taken from ChEMBL document CHEMBL6134802, “A benzoxazolyl urea inhibits VraS and enhances antimicrobials against vancomycin intermediate-resistant Staphylococcus aureus” (Bioorg Med Chem Lett, 2025).
